According to patent publication US20060241096A1, “Agent for preventing or treating organ functional disorders and organ dysfunction” (priority 2001, published 2006):
Marks after values point to notes of the source that are not given here.

Assays:
[1] = tested on: myocardial infarction; test: Effect on myocardial infarction (Test Example 5); assay type: in vivo, rat; conditions: male Wistar rats, left coronary artery ligated 25 min, 2 hrs reperfusion, mean ± standard error, N = 7-10
Protocol: Each of 6-week old male Wistar rats (7-10 rats per group) was forced oral administration of vehicle, test compound 1 (2, 20 mg/kg), Atorvastatin (2, 20 mg/kg), Simvastatin (2, 20 mg/kg) using a gastric sonde by the volume of 1 mL/kg and once per day for 15 days. After 1 hr of the final administration, the anterior descending-branch of left coronary artery was ligated and reperfused after 25 min. After 2 hrs of reperfusion, Evance blue was intravenously injected from the right cervical vein so that the non-ischemic area was stained and can be distinguished from the ischemic area, and the rats were slaughtered. The ischemic area was carved out, and the living area was stained using p-nitroblue tetrazolium and distinguished from the necrotic area (portion of myocardial infarction). The area of myocardial infarction was calculated by the weight ratio relative to the ischemic area (Table 5).

[2] = tested on: ubiquinone (CoQ9) in heart; test: Ubiquinone increasing effect in heart (Test Example 1); assay type: in vivo, rat; conditions: male SD rats, mean ± standard error, N = 8
Protocol: (§1) Each of 6-week old male SD rats (eight rats per group) was forced oral administration of a vehicle or test compound 1 using a gastric sonde by the volume of 5 mL/kg so that the doses became 6, 20, 60 mg/kg, respectively, once a day for 14 days. On the morning after 14 times of administration, the animals were beheaded to slaughter. Hearts were collected immediately, frozen in liquid nitrogen and stored at −80° C. On the following day, the hearts were homogenized and oxidized with iron(III) chloride. After extraction with ethanol/hexane, the concentration of ubiquinone was determined by HPLC (Table 1).

[3] = tested on: cerebral infarction; test: Cerebral infarction suppressing effect (Test Example 4); assay type: in vivo, rat; conditions: male SD rats, 14 administrations, arteria cerebri media occluded 2 h, 48 hrs reperfusion, TTC staining, mean ± standard error, N = 19-22
Protocol: Each of 6-week old male SD rats (19 to 22 rats per group) was forced oral administration of a vehicle or test compound 1 using a gastric sonde by the volume of 5 mL/kg so that the doses became 2, 20 mg/kg, respectively, using a gastric sonde. The day after 14 times of administration, a silicone plug was inserted from the carotid artery under halothane anesthetic to occlude proximal portion of the arteria cerebri media. After two hours, the plug was removed under light anesthetic, and reperfusion was carried out. After 48 hrs of reperfusion, the rats were beheaded to slaughter. Six pieces of sliced brain from the forehead (thickness: 2 mm) were carved out and subjected to TTC staining (1% TTC, 37° C., 15 min). The TTC-stained image was photographed by a digital camera, and the area of cerebral infarction was measured by an image analyzer. (Table 4)

[4] = tested on: ubiquinone (CoQ9, CoQ10) in brain; test: Ubiquinone increasing effect in brain (Test Example 3); assay type: in vivo, rat; conditions: male SD rats, 14 administrations, arteria cerebri media occluded 2 h, 8 hrs reperfusion, right cerebral cortices and striata, mean ± standard error, N = 8
Protocol: Each of 6-week old male SD rats (eight rats per group) was forced oral administration of a vehicle or test compound 1 using a gastric sonde by the volume of 5 mL/kg so that the doses became 2, 20 mg/kg, respectively. The day after 14 times of administration, a silicone plug was inserted from the carotid artery under halothane anesthetic to occlude proximal portion of the arteria cerebri media. After two hours, the plug was removed under light anesthetic, and reperfusion was carried out. After 8 hrs of reperfusion, the rats were beheaded to slaughter. The right cerebral cortices and striata were collected, frozen on dry ice and preserved at −80° C. On the following day, the right cerebral cortices and striata were homogenized and oxidized with iron(III) chloride. After extraction with ethanol/hexane, the concentration of ubiquinone was determined by HPLC (Table 3).

[5] = tested on: ubiquinone (CoQ9) in liver and heart; test: Ubiquinone increasing effect in liver and heart (Test Example 2); assay type: in vivo, rat; conditions: male SD rats, mean ± standard error, N = 8
Protocol: as §1, with “to slaughter. Liver and hearts were collected” for “to slaughter. Hearts were collected”, “day, the livers and hearts were” for “day, the hearts were”, “HPLC (Table 2).” for “HPLC (Table 1).”

[6] = 2 mg/kg oral once per day for 15 days
[7] = 20 mg/kg oral once per day for 15 days
[8] = 6 mg/kg oral once a day for 14 days
[9] = 20 mg/kg oral once a day for 14 days
[10] = 60 mg/kg oral once a day for 14 days

Question: For `CC(C)c1c(C(=O)Nc2ccccc2)c(-c2ccccc2)c(-c2ccc(F)cc2)n1CC[C@@H](O)C[C@@H](O)CC(=O)O` [Atorvastatin], which “Area of myocardial infarction” value [1, 6] is on record?
Answer: 51 ± 4 % ischemic area

Question: And the “Area of myocardial infarction” value [1, 7]?
Answer: 47 ± 6 % ischemic area

Question: Which “Amount of CoQ9 in heart” value [2, 8] does the source give for `COc1cccc([C@H]2O[C@H](CC(=O)N3CCC(CC(=O)O)CC3)C(=O)N(CC(C)(C)COC(C)=O)c3ccc(Cl)cc32)c1OC` [Compound 1, N-[[(3R,5S)-1-(3-acetoxy-2,2-dimethylpropyl)-7-chloro-5-(2,3-dimethoxyphenyl)-2-oxo-1,2,3,5-tetrahydro-4,1-benzoxazepin-3-yl]acetyl]piperidine-4-acetic acid] here?
Answer: 214.4 ± 6.6 μg/g heart

Question: And the “Amount of CoQ9 in heart” value [2, 9]?
Answer: 215.3 ± 5.7 μg/g heart

Question: And the “Amount of CoQ9 in heart” value [2, 10]?
Answer: 225.0 ± 4.6 μg/g heart

Question: And the “Area of myocardial infarction” value [1, 6]?
Answer: 61 ± 4 % ischemic area

Question: And the “Area of myocardial infarction” value [1, 7]?
Answer: 43 ± 2 % ischemic area

Question: What about the “Volume of cerebral infarction” value ([3]; 2 mg/kg oral) of the same compound?
Answer: 289 ± 27 mm^3

Question: And the “Volume of cerebral infarction” value ([3]; 20 mg/kg oral)?
Answer: 220 ± 35* mm^3

Question: What about the “Amount of CoQ9 in brain” value ([4]; 2 mg/kg oral) of the same compound?
Answer: 22.0 ± 0.4 μg/g brain

Question: What about the “Amount of CoQ10 in brain” value ([4]; 2 mg/kg oral) of the same compound?
Answer: 13.0 ± 0.3 μg/g brain

Question: What about the “Amount of CoQ9 in brain” value ([4]; 20 mg/kg oral) of the same compound?
Answer: 24.9 ± 0.5 μg/g brain

Question: What about the “Amount of CoQ10 in brain” value ([4]; 20 mg/kg oral) of the same compound?
Answer: 14.7 ± 0.3 μg/g brain

Question: For `COc1cccc([C@H]2O[C@H](CC(=O)Nc3cccc(CCC(=O)O)c3)C(=O)N(CC(C)(C)CO)c3ccc(Cl)cc32)c1OC` [Compound 2, 3-[3-[[(3R,5S)-7-chloro-5-(2,3-dimethoxyphenyl)-1-(3-hydroxy-2,2-dimethylpropyl)-2-oxo-1,2,3,5-tetrahydro-4,1-benzoxazepin-3-yl]acetyl]aminophenyl]propionic acid], which melting point is on record?
Answer: 141 to 144 °C

Question: What about the “Amount of CoQ9 in heart” value [5, 8] of the same compound?
Answer: 202.7 ± 2.7 μg/g heart

Question: And the “Amount of CoQ9 in liver” value [5, 8]?
Answer: 105.2 ± 3.5 μg/g liver

Question: What about the “Amount of CoQ9 in heart” value [5, 9] of the same compound?
Answer: 208.3 ± 4.6 μg/g heart

Question: And the “Amount of CoQ9 in liver” value [5, 9]?
Answer: 117.6 ± 4.6 μg/g liver

Question: And the “Amount of CoQ9 in heart” value [5, 10]?
Answer: 204.7 ± 4.0 μg/g heart

Question: And the “Amount of CoQ9 in liver” value [5, 10]?
Answer: 125.4 ± 3.4 μg/g liver

Question: For `CCC(C)(C)C(=O)O[C@H]1C[C@@H](C)C=C2C=C[C@H](C)[C@H](CC[C@@H]3C[C@@H](O)CC(=O)O3)[C@H]21` [Simvastatin], which “Area of myocardial infarction” value [1, 6] is on record?
Answer: 51 ± 3 % ischemic area

Question: What about the “Area of myocardial infarction” value [1, 7] of the same compound?
Answer: 51 ± 2 % ischemic area
